# Source: US7728019B2, “Biphenylcarboxamides” (priority 2002, dated 2010)
# Legend:
# [1] = logP determination by HPLC on reverse-phase column (C 18), acidic range pH 2.3; assay type: physicochemical; conditions: reverse-phase HPLC column (C 18), HPLC, C 18 reverse-phase, 43° C.
# Description: The logP values given in Table 1 were determined with EEC Directive 79/831 Annex V.A8 by HPLC (High Performance Liquid Chromatography) on a reverse-phase column (C 18). Temperature: 43° C. Mobile phases for the determination in the acidic range (pH 2.3): 0.1% aqueous phosphoric acid, acetonitrile; linear gradient from 10% acetonitrile to 90% acetonitrile. Calibration was carried out using unbranched alkan-2-ones (having 3 to 16 carbon atoms) with known logP values (determination of the logP values by the retention times using linear interpolation between two successive alkanones).
# Botrytis cinerea = experiment: Botrytis test (bean)/protective; assay type: in vivo; conditions: 48 h, bean plants, protective, application rate 500 g/ha, evaluation 2 days after inoculation, read-out: Efficacy in %
# Description: (§1) To produce a suitable preparation of active compound, 1 part by weight of active compound is mixed with the stated amounts of solvents and emulsifier, and the concentrate is diluted with water to the desired concentration.
# To test for protective activity, young plants are sprayed with the preparation of active compound at the stated application rate. After the spray coating has dried on, 2 small pieces of agar colonized by Botrytis cinerea are placed onto each leaf. The inoculated plants are placed in a dark chamber at about 20° C. and 100% relative atmospheric humidity.
# 2 days after the inoculation, the size of the infected areas on the leaves is evaluated. 0% means an efficacy which corresponds to that of the control, whereas an efficacy of 100% means that no infection is observed.
# Alternaria solani = experiment: Alternaria test (tomato)/protective; assay type: in vivo; conditions: tomato plants, protective; application rate 750 g/ha; evaluation 7 days after inoculation
# Description: (§2) To produce a suitable preparation of active compound, 1 part by weight of active compound is mixed with the stated amounts of solvent and emulsifier, and the concentrate is diluted with water to the desired concentration.
# To test for protective activity, young tomato plants are sprayed with the preparation of active compound at the stated application rate. 1 day after the treatment, the plants are inoculated with a spore suspension of Alternaria solani and then remain at 100% relative atmospheric humidity and 20° C. for 24 hours. The plants then remain at 96% relative atmospheric humidity and a temperature of 20° C.
# Evaluation is carried out 7 days after the inoculation. 0% means an efficacy which corresponds to that of the control, whereas an efficacy of 100% means that no infection is observed.
# [2] = test system: eggs of the diamond back moth (Plutella xylostella); experiment: Plutella test; assay type: in vivo; conditions: active compound concentration 1000 ppm, on synthetic feed
# Description: To produce a suitable preparation of active compound, 1 part by weight of active compound is mixed with the stated amount of solvent, and the concentrate is diluted with methanol to the desired concentrations.
# A stated amount of the preparation of active compound of the desired concentration is pipetted onto a standardized amount of synthetic feed. After the methanol has evaporated, about 200-300 eggs of the diamond back moth (Plutella xylostella) are placed onto the feed.
# After the desired period of time, the kill of the eggs in % is determined. 100% means that all animals have been killed; 0% means that none of the animals have been killed.
# [3] = test system: apple scab pathogen Venturia inaequalis; experiment: Venturia test (apple)/protective; assay type: in vivo; conditions: apple plants, protective; application rate 100 g/ha; evaluation 10 days after inoculation
# Description: as §1
# To test for protective activity, young plants are sprayed with the preparation of active compound at the stated application rate. After the spray coating has dried on, the plants are inoculated with an aqueous conidia suspension of the apple scab pathogen Venturia inaequalis and then remain in an incubation cabin at about 20° C. and 100% relative atmospheric humidity for 1 day.
# The plants are then placed in a greenhouse at about 21° C. and a relative atmospheric humidity of about 90%.
# (§3) Evaluation is carried out 10 days after the inoculation. 0% means an efficacy which corresponds to that of the control, whereas an efficacy of 100% means that no infection is observed.
# Puccinia recondita = experiment: Puccinia test (wheat)/protective; assay type: in vivo; conditions: 240 h, wheat plants, protective, application rate 500 g/ha, evaluation 10 days after inoculation, read-out: Efficacy in %
# Description: as §2
# To test for protective activity, young plants are inoculated with a spore suspension of Puccinia recondita in a 0.1% strength aqueous agar solution. After the spray coating has dried on, the plants are sprayed with the preparation of active compound at the stated application rate. The plants remain in an incubation cabin at 20° C. and 100% relative atmospheric humidity for 24 hours.
# The plants are then placed in a greenhouse at a temperature of about 20° C. and a relative atmospheric humidity of 80% to promote the development of rust pustules.
# as §3
chromatographic logP [1],SMILES,pest or weed control at 500 g/ha (Botrytis cinerea),Efficacy in % (Alternaria solani),Kill rate in % after 7 d [2],Efficacy in % [3],pest or weed control at 500 g/ha (Puccinia recondita)
4.16,Cc1nc(C(F)(F)F)c(C(=O)Nc2ccccc2-c2ccc(/C=N\OCC3CC3)cc2)s1 [Compound 2],98%,90%,,,
4.69,CC1=C(C(=O)Nc2ccccc2-c2ccc(/C(C)=N\OCC3CC3)cc2)SCCO1 [Compound 22],,,95%,,
3.91,C=CCO/N=C\c1ccc(-c2ccccc2NC(=O)c2sc(C)nc2C(F)(F)F)cc1 [Compound 5],83%,100%,,100%,
3.3,C=CCO/N=C\c1ccc(-c2ccccc2NC(=O)c2cccnc2Cl)cc1 [Compound 12],,100%,,,
3.92,C=CCO/N=C(/C)c1ccc(-c2ccccc2NC(=O)c2sc(C)nc2C(F)F)cc1 [Compound 15],,,95%,,100%
3.47,C=CCO/N=C\c1ccc(-c2ccccc2NC(=O)c2c(C)nn(C)c2F)cc1 [Compound 6],98%,100%,,97%,100%
